How the values were obtained:
Assay type in all cases: in vivo
[1] = system: wheat (Triticum aestivum); assay: Test A postemergence, visual injury rating; conditions: 0 to 100 scale, 0 is no effect, 100 is complete control, approximately 10 days
Excerpt: (§1) Seeds of plant species selected from barnyardgrass (Echinochloa crus-galli), kochia (Kochia scoparia), ragweed (common ragweed, Ambrosia elatior), Italian ryegrass (Lolium multiflorum), large (Lg) crabgrass (Digitaria sanguinalis), giant foxtail (Setaria faberii), morningglory (Ipomoea spp.), pigweed (Amaranthus retroflexus), velvetleaf (Abutilon theophrasti), wheat (Triticum aestivum), and corn (Zea mays) were planted into a blend of loam soil and sand and treated preemergence with a directed soil spray using test chemicals formulated in a non-phytotoxic solvent mixture which included a surfactant.
(§2) At the same time, plants selected from these crop and weed species and also blackgrass (Alopecurus myosuroides), and galium (catchweed bedstraw, Galium aparine) were planted in pots containing the same blend of loam soil and sand and treated with postemergence applications of test chemicals formulated in the same manner. Plants ranged in height from 2 to 10 cm and were in the one- to two-leaf stage for the postemergence treatment. Treated plants and untreated controls were maintained in a greenhouse for approximately 10 days, after which time all treated plants were compared to untreated controls and visually evaluated for injury. Plant response ratings, summarized in Table A, are based on a 0 to 100 scale where 0 is no effect and 100 is complete control. A dash (-) response means no test result.

[2] = system: blackgrass (Alopecurus myosuroides); assay: Test A postemergence, visual injury rating; conditions: 0 to 100 scale, 0 is no effect, 100 is complete control, approximately 10 days
Excerpt: as §1, §2

kochia (Kochia scoparia) [3] = assay: Test A postemergence, visual injury rating; conditions: 0 to 100 scale, 0 is no effect, 100 is complete control, approximately 10 days
Excerpt: as §1, §2

[4] = system: ragweed (common ragweed, Ambrosia elatior); assay: Test A postemergence, visual injury rating; conditions: 0 to 100 scale, 0 is no effect, 100 is complete control, approximately 10 days
Excerpt: as §1, §2

[5] = system: giant foxtail (Setaria faberii); assay: Test A postemergence, visual injury rating; conditions: 0 to 100 scale, 0 is no effect, 100 is complete control, approximately 10 days
Excerpt: as §1, §2

[6] = system: barnyardgrass (Echinochloa crus-galli); assay: Test A postemergence, visual injury rating; conditions: 0 to 100 scale, 0 is no effect, 100 is complete control, approximately 10 days
Excerpt: as §1, §2

corn (Zea mays) = assay: Test A postemergence, visual injury rating; conditions: 0 to 100 scale, 0 is no effect, 100 is complete control, approximately 10 days
Excerpt: as §1, §2

[7] = system: galium (catchweed bedstraw, Galium aparine); assay: Test A postemergence, visual injury rating; conditions: 0 to 100 scale, 0 is no effect, 100 is complete control, approximately 10 days
Excerpt: as §1, §2

[8] = system: pigweed (Amaranthus retroflexus); assay: Test A postemergence, visual injury rating; conditions: 0 to 100 scale, 0 is no effect, 100 is complete control, approximately 10 days
Excerpt: as §1, §2

[9] = system: Italian ryegrass (Lolium multiflorum); assay: Test A postemergence, visual injury rating; conditions: 0 to 100 scale, 0 is no effect, 100 is complete control, approximately 10 days
Excerpt: as §1, §2

kochia (Kochia scoparia) [10] = assay: Test A preemergence, visual injury rating
In short: (§3)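 Injury scores run from 0, no effect, to 100, complete control, judged by eye against untreated plants roughly 10 days after treatment. Chemicals carried a surfactant in a non-phytotoxic solvent and went onto loam–sand soil preemergence or onto one- to two-leaf seedlings postemergence.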

[11] = system: ragweed (common ragweed, Ambrosia elatior); assay: Test A preemergence, visual injury rating
In short: as §3

[12] = system: giant foxtail (Setaria faberii); assay: Test A preemergence, visual injury rating
In short: as §3

[13] = system: barnyardgrass (Echinochloa crus-galli); assay: Test A preemergence, visual injury rating
In short: as §3

[14] = system: pigweed (Amaranthus retroflexus); assay: Test A preemergence, visual injury rating
In short: as §3

[15] = system: Italian ryegrass (Lolium multiflorum); assay: Test A preemergence, visual injury rating
In short: as §3

[16] = system: ducksalad (Heteranthera limosa); assay: Test B flooded paddy test, plant response rating; conditions: 250 g ai/ha; Flood; scale of 0 to 100 where 0 is no effect and 100 is complete control; 13 to 15 days
In short: (§4)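 Flooded 3 cm over soil; compound into paddy water; depth kept constant. Greenhouse 13–15 d.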

[17] = system: barnyardgrass (Echinochloa crus-galli); assay: Test B flooded paddy test, plant response rating; conditions: 250 g ai/ha; Flood; scale of 0 to 100 where 0 is no effect and 100 is complete control; 13 to 15 days
In short: as §4

rice (Oryza sativa) = assay: Test B flooded paddy test, plant response rating; conditions: 250 g ai/ha; Flood; scale of 0 to 100 where 0 is no effect and 100 is complete control; 13 to 15 days
In short: as §4

[18] = system: sedge, umbrella (small-flower umbrella sedge, Cyperus difformis); assay: Test B flooded paddy test, plant response rating; conditions: 250 g ai/ha; Flood; scale of 0 to 100 where 0 is no effect and 100 is complete control; 13 to 15 days
In short: as §4

[19] = 31 g ai/ha, 0 to 100 scale, 0 no effect, 100 complete control
[20] = 125 g ai/ha, 0 to 100 scale (0 no effect, 100 complete control)

SMILES | Wheat plant response rating ([1]; 31 g ai/ha) | Wheat plant response rating ([1]; 125 g ai/ha) | Blackgrass plant response rating ([2]; 31 g ai/ha) | Blackgrass plant response rating ([2]; 125 g ai/ha) | Kochia plant response rating (kochia (Kochia scoparia) [3]; 31 g ai/ha) | Kochia plant response rating (kochia (Kochia scoparia) [3]; 125 g ai/ha) | Ragweed plant response rating ([4]; 31 g ai/ha) | Ragweed plant response rating ([4]; 125 g ai/ha) | Foxtail, Giant plant response rating ([5]; 31 g ai/ha) | Foxtail, Giant plant response rating ([5]; 125 g ai/ha) | Barnyardgrass plant response rating ([6]; 31 g ai/ha) | Barnyardgrass plant response rating ([6]; 125 g ai/ha) | Corn plant response rating (corn (Zea mays); 31 g ai/ha) | Corn plant response rating (corn (Zea mays); 125 g ai/ha) | Galium plant response rating ([7]; 31 g ai/ha) | Galium plant response rating ([7]; 125 g ai/ha) | Pigweed plant response rating ([8]; 31 g ai/ha) | Pigweed plant response rating ([8]; 125 g ai/ha) | Ryegrass, Italian plant response rating ([9]; 31 g ai/ha) | Ryegrass, Italian plant response rating ([9]; 125 g ai/ha) | also measured
CN(CCCC(F)(F)F)c1c(C#N)cccc1Oc1ncc(Cl)cn1 [Compound 126] | 0 | 0 | 0 | 0 | 0 | 0 | 0 | 0 | 0 | 0 | 0 | 0 | 0 | 0 | 0 | 0 | 0 | 10 | 0 | 0 | Plant response rating, Kochia (kochia (Kochia scoparia) [10]; [19]): 0; Plant response rating, Kochia (kochia (Kochia scoparia) [10]; [20]): 0; Plant response rating, Ragweed [11, 19]: 0; Plant response rating, Ragweed [11, 20]: 0; Plant response rating, Foxtail, Giant [12, 19]: 0; Plant response rating, Foxtail, Giant [12, 20]: 0; Plant response rating, Barnyardgrass [13, 19]: 0; Plant response rating, Barnyardgrass [13, 20]: 0; Plant response rating, Pigweed [14, 19]: 0; Plant response rating, Pigweed [14, 20]: 0; Plant response rating, Ryegrass, Italian [15, 19]: 0; Plant response rating, Ryegrass, Italian [15, 20]: 0; Plant response rating, Ducksalad [16]: 0; Plant response rating, Barnyardgrass [17]: 90; Plant response rating, Rice (rice (Oryza sativa)): 0; Plant response rating, Sedge, Umbrella [18]: 0
C#CCOC(=O)c1c(Br)cccc1Oc1ncc(Cl)cn1 [Compound 108] | 0 | 0 | 0 | 0 | 20 | 40 | 0 | 0 | 0 | 10 | 0 | 10 | 10 | 20 | 20 | 40 | 20 | 50 | 0 | 0 | Plant response rating, Kochia (kochia (Kochia scoparia) [10]; [19]): 0; Plant response rating, Kochia (kochia (Kochia scoparia) [10]; [20]): 10; Plant response rating, Ragweed [11, 19]: 0; Plant response rating, Ragweed [11, 20]: 0; Plant response rating, Foxtail, Giant [12, 19]: 10; Plant response rating, Foxtail, Giant [12, 20]: 80; Plant response rating, Barnyardgrass [13, 19]: 10; Barnyardgrass plant response rating [13, 20]: 30; Plant response rating, Pigweed [14, 19]: 0; Plant response rating, Pigweed [14, 20]: 70; Plant response rating, Ryegrass, Italian [15, 19]: 0; Plant response rating, Ryegrass, Italian [15, 20]: 0; Plant response rating, Ducksalad [16]: 80; Plant response rating, Barnyardgrass [17]: 0; Plant response rating, Rice (rice (Oryza sativa)): 0; Plant response rating, Sedge, Umbrella [18]: 60
